Columns and labels:
[1] = tested on: histamine-induced pruritus; assay: Scratch test, histamine-induced pruritus, simultaneous intradermal injection of compound; format: in vivo, mice; details: 10 μM compound injected simultaneously with 500 μg/site histamine, 30 minutes, histamine only about 152, FIG. 11
Protocol: In order to confirm reactions to pruritus-inducing substances such as histamine or serotonin in the present invention, a behavior experiment was conducted. In order to induce scratching, histamine and serotonin which are known to induce itchy sensation in humans were used. Here, histamine or serotonin was diluted with sterilized saline solution. On the day before the experiment, experimental animals were anaesthetized by mixing zolitel and rompun at a ratio of 1:4 and injecting 1 mL/kg thereof, and hair on the nape areas of a 1.5 cm×1.5 cm square was removed using a clipper on the nape of experimental animals. On the day of the experiment, a box of 10 cm×20 cm×15 cm dimensions was produced and mice were stabilized for 30 minutes therein. Thereafter, 100 μL of solvents or the experimental substance was applied on the back of the neck of mice, and after 30 minutes, 50 μL of pruritus-inducing substances (500 μg/site of histamine or 10 μg/site of serotonin) was injected at the back of the neck of experimental animals via intradermal injection. Next, reactions of experimental animals were video-recorded for 30 minutes, and a scratch test was conducted by counting up and down of a hind paw of an experimental animal to the injected area in the back of the neck as one scratch. […]
As described in Experimental Example 4, in order to induce scratching, experimental animals in the control group were injected with 500 μg/site of histamine at the back of the neck via intradermal injection, and along with the histamine, the experimental group was simultaneously injected with 10 μM isoeugenol (mixture of cis and trans, 82 ng) and 10 μM methyleugenol (89 ng) as representative eugenol derivatives, as well as 10 μM eugenol (82 ng). Thereafter, the reactions of experimental animals were video-recorded for 30 minutes, and a scratch test was conducted by counting the action of going up and down of a hind paw of an experimental animal to the injected area in the back of the neck as one scratch.

[2] = cited from earlier work
[3] = tested on: heat pain (capsaicin receptors); assay: Hargreaves test, acute heat pain reactions; format: in vivo, mice; details: 3 wt % eugenol compared to the base cream
Protocol: In order to examine whether 3 wt % eugenol acts on capsaicin receptors and effects behavioral reactions to heat stimulation, Hargreaves test was conducted. With reference to Hargreaves et al. (1988), heat stimulation by light was delivered to a hind paw of a subject, and the corresponding avoidance reaction time was measured.

[4] = tested on: histamine-induced pruritus; assay: Scratch test, histamine-induced pruritus, cream applied; format: in vivo, mice; details: histamine 500 μg intradermal
Description: (§1) 7-week-old male C57/BL6 mice were used in the present experiment, and in order to produce atopic dermatitis models, 7-week-old male balb/c nude mice were purchased from Orient Bio (Korea) and used. The method described in the manuscript of Kuraishi et al., presented the original form of mouse models developed in the present invention (Kuraishi et al., 1995). The group consisting of male BL6/C57 mice weighing 20 g to 23 g was used in the experiment. The experiment proceeded after experimental animals were accustomed to the conventional environment of 23±2° C. and 55±15% humidity for 3 days, in which light was constrained from 8 pm to 8 am, and were given ad libitum access to food and water. In order to confirm reactions to pruritus-inducing substances such as histamine or serotonin in the present invention, a behavior experiment was conducted. In order to induce scratching, histamine and serotonin which are known to induce itchy sensation in humans were used. Here, histamine or serotonin was diluted with sterilized saline solution. […] Next, reactions of experimental animals were video-recorded for 30 minutes, and a scratch test was conducted by counting up and down of a hind paw of an experimental animal to the injected area in the back of the neck as one scratch. […]

[5] = tested on: atopic dermatitis animal models (oxalozone-induced); assay: Visual inspection of dermal recovery in atopic dermatitis animal models; format: in vivo, balb/c nude mice; details: 200 μL of 3 wt % eugenol cream, same time of a day for a week, FIG. 2
Description: 7-week-old male C57/BL6 mice were used in the present experiment, and in order to produce atopic dermatitis models, 7-week-old male balb/c nude mice were purchased from Orient Bio (Korea) and used. The method described in the manuscript of Kuraishi et al., presented the original form of mouse models developed in the present invention (Kuraishi et al., 1995). The group consisting of male BL6/C57 mice weighing 20 g to 23 g was used in the experiment. The experiment proceeded after experimental animals were accustomed to the conventional environment of 23±2° C. and 55±15% humidity for 3 days, in which light was constrained from 8 pm to 8 am, and were given ad libitum access to food and water. Atopic dermatitis animal models were produced with reference to Hatano et al. (2011), and it is known that TRPV1 is mediated in the developmental mechanism. Particularly, balb/c nude mice were used to produce the atopic dermatitis animal models. In the first two days, 50 μL of 5% oxalozone was treated to sensitize the back of the neck of experimental animals, and a week of recovery followed. In the next 4 weeks, 60 μL of 0.5% oxalozone was treated for a total of 12 times to complete atopic dermatitis animal models (FIG. 1). […]

[6] = tested on: serotonin-induced pruritus; assay: Scratch test, serotonin-induced pruritus, cream applied; format: in vivo, mice; details: serotonin 10 μg
Description: as §1

TRPV1 = TRPV1 (Homo sapiens, UniProt Q8NER1); details: high concentration; cited from earlier work
Sequence of TRPV1 (Q8NER1 whole entry, species assumed): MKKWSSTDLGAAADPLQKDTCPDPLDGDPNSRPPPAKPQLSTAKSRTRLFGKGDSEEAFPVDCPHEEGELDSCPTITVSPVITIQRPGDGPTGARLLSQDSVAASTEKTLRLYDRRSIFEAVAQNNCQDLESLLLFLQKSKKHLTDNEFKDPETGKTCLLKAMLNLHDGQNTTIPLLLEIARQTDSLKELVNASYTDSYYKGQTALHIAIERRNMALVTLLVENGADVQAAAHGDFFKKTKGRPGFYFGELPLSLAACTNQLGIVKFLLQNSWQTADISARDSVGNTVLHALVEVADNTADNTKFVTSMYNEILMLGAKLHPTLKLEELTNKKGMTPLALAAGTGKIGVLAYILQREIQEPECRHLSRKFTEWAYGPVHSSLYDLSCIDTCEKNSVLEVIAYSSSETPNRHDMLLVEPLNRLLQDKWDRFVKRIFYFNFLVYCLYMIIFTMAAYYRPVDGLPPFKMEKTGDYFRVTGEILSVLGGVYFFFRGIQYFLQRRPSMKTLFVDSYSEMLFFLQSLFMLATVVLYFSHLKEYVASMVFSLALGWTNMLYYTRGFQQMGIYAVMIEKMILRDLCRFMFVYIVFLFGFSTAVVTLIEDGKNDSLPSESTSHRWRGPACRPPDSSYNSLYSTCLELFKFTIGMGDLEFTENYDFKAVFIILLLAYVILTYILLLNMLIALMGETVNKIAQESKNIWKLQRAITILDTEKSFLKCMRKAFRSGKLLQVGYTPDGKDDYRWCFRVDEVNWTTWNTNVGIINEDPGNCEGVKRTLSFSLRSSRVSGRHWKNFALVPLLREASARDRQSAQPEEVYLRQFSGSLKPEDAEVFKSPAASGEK

mechanical pain = assay: von-Frey test, acute mechanical pain reactions; format: in vivo, mice; details: 3 wt % eugenol
Protocol: However, effects of blocking pain by blocking Na ion channels are induced by blocking all the dermal sensory information and thus are non-specific phenomena. Therefore, von-Frey test was conducted to examine whether antipruritic effects are induced by reduced excitation via blocking voltage-dependent Na ion channels of sensory nerves by confirming whether eugenol at a pruritus-effective concentration blocks pain reactions. With reference to Chaplan et al. (1994), hind paws of experimental animals were stimulated with von-Frey filaments (0.02 g to 4 g), and 50% avoidance reactions were measured. Through this process, avoidance reactions to mechanical stimulations were measured and assessed as a reaction threshold.

Row | SMILES | number of scratching on average [1] | solubility in organic solvents [2] | solubility in water [2] | avoidance reaction in response to heat pain (Hargreaves) [3] | reduction of pruritus reactions ([4]; 3 wt % eugenol cream, 30 minutes) | blocking effects on histamine-dependent pruritus ([4]; 10 wt % eugenol cream) | dermal recovery from atopic dermatitis (visual inspection) [5] | antipruritic effects on serotonin-induced pruritus ([6]; 100 μL of 3 wt % eugenol) | antipruritic effects on serotonin-induced pruritus ([6]; 100 μL of 10 wt % eugenol) | concentration at which TRPV1 is activated (TRPV1) [mM] | mechanical pain, 50% avoidance reaction threshold (von-Frey) (mechanical pain)
1 | CC=Cc1ccc(O)c(OC)c1 (racemic) [isoeugenol, (E) or (Z)-2-methoxy-4-(prop-1-enyl)phenol] | about 80 times |  |  |  |  |  |  |  |  |  | 
2 | C=CCc1ccc(O)c(OC)c1 [eugenol, 4-allyl-2-methoxyphenol] | about 45 times | high | low | significantly increased avoidance reaction | at least 40% | increased blocking effects on histamine-dependent pruritus | recovered skin to the normal level | antipruritic effects were not observed | showed blocking of serotonin-induced pruritus | ≥ 1 | did not show a significant difference
3 | C=CCc1ccc(OC)c(OC)c1 [methyleugenol] | 99 times |  |  |  |  |  |  |  |  |  | 

Source: patent US20160256421A1, “COMPOSITION CONTAINING EUGENOL AS ACTIVE INGREDIENT FOR PREVENTING OR TREATING ATOPIC DERMATITIS” (SEOUL NATIONAL UNIVERSITY R&DB FOUNDATION, priority 2013, published 2016)
